Test results: patent publication US20110123623A1, “RHAMNOLIPID MECHANISM” (priority 2009, published 2011)
Read-outs that look alike come from different tables or passages of the source.

Tests used:
[1] = test system: C. albicans; assay: Immunorestoration activity: cyclophosphamide immunosuppression and C. albicans challenge; type: in vivo, mouse; details: 100 mg/kg i/p days 1, 3, 5, cyclophosphamide 30 mg/kg p/o days 2, 4, 6
Procedure: Di-rhamnolipid W3CTS was administered i/p. (100 mg/kg) to groups of ICR derived male mice weighing 22±2 g on days 1, 3, and 5, with the immunosuppressant cyclophosphamide (30 mg/kg p/o.) administered on days 2, 4, and 6. One day after the last immunosuppressant dose, the mice were challenged with a suspension of C. Albicans sufficient to result in 90-100% mortality within 10 days in vehicle treated animals. Survival of 30 percent or more (≧30) of the animals was considered significant and indicated possible immunorestoration activity. Reference agent was lipopolysaccharide 0.3 mg/kg i/p.

[2] = test system: neonatal human keratinocytes; assay: Colony forming efficiency of neonatal human keratinocytes; type: cell-based; details: GM medium with 10% fetal bovine serum
Procedure: Colony forming efficiency of neonatal human keratinocytes treated with Di-rhamnolipid W3CTS.
The stimulation was most significant at 100 μg/ml and 50 μg/ml the colony forming ability was increased by 34% at 50 μg/ml of Di-rhamnolipid W3CTS. The results are consistent with the effects of Di-rhamnolipid W3CTS on the neonatal human keratinocyte viability in GM with 10% fetal bovine serum.

[3] = test system: female Swiss-Webster mice; assay: Induction and challenge phases of DTH in the mouse ear; type: in vivo
Description: Effects of Di-Rhamnolipid W3CTS on the Induction and Challenge Phases of DTH in Female Swiss-Webster Mice.
The aims of this study were first, to evaluate the in-vivo effects of Di-rhamnolipid W3CTS on aspects of a T-cell mediated immune response in mice and second, to determine if Di-rhamnolipid W3CTS was a sensitizing agent. This formed one of a series of studies to evaluate the toxicity and functionality of Di-rhamnolipid W3CTS.
The model used was induced delayed-type hypersensitivity (DTH) response in the mouse ear. In general, the DTH model involves administering a sensitizing agent mixed with an adjuvant, one or more occasions to prime the immune system. One to two weeks after the final induction and boost(s), animals are re-exposed to the sensitizing antigen, with a small volume injected intradermally in the ear, to elicit a secondary response (challenge). The ear swells during the secondary T-cell mediated response, and thus the change in ear thickness from prestimulation can be quantified. The present study had several sub-components testing different components of the immune response.
Parts A & B followed the standard procedure, in which the treatment test article, Di-rhamnolipid W3CTS, was administered topically concurrent to the challenge with sensitizing agent. Additionally, the effects of Di-rhamnolipid W3CTS on development of the primary immune response were also tested (Parts C&D). Therefore it was possible to obtain preliminary information about potential activity of Di-rhamnolipid W3CTS on more than one arm of the immune system. In parts B, C, and D, the protein ovalbumin, in CFA (Complete Freund's Adjuvant) or IFA (Incomplete Freund's Adjuvant) was used as the sensitizing agent as it is a standard with well-characterized, quantifiable activity in DTH. An additional compound, DNCB (1-chloro-2,4-di-nitro benzene) with gamma interferon (IFN-gamma), was also used (Group A) in order to maximize the opportunity to characterize the activity of Di-rhamnolipid W3CTS on T-cell mediated immunity. […]

[4] = test system: T-lymphocyte cells isolated from thymus of balb/c mice; assay: Mouse T-cell proliferation (thymidine incorporation); type: cell-based
Procedure: T-lymphocyte cells isolated from thymus of balb/c mice weighing 17±1 g were used. Test compound and/or vehicle was incubated with the cells (4×10^6/ml) in the presence of 3 μg/ml concanavalin A (Con A) overnight. Thymidine incorporation was assessed by liquid scintillation counting. B-lymphocyte cells isolated from the spleen of balb/c mice weighing 17±1 g were used. Test compound and/or vehicle was incubated with the cells (1.5×10^6/ml) in the presence of 10 μg/ml lipopolysaccharide (LPS) in AIM-V medium pH 7.4 at 37° C., during 24 hours. [^3H]Thymidine (120 nM) was then added for an additional overnight incubation period. Thymidine incorporation was assessed by liquid scintillation counting. […] T-cells isolated from mouse thymus were inhibited at the concentration of 10 μM by 24% and in the presence of concanavalin T-cells proliferation was inhibited 43%.

[5] = test system: female and male mice; assay: Blood findings after one single i/v dose; type: in vivo, mouse; details: 75 mg/kg single i/v dose
Procedure: Blood findings in female and male mice treated i/v with one single dose of 75 mg/kg of Di-rhamnolipid W3CTS
Monocytes were increased in treated mice up to 100% after 4th day and 29th

## CCCCCCCC(CC(=O)O)OC(=O)CC(CCCCCCC)OC1OC(C)C(O)C(O)C1OC1OC(C)C(O)C(O)C1O (stereo not shown) [Di-rhamnolipid W3CTS]
[1]
  immunorestoration activity (survival of 30 percent or more considered significant): possible very significant immunorestoration activity
[2]; 50 μg/ml
  colony forming ability increase: 34%
[2]; 100, 50, 10 and 1 μg/ml
  growth of keratinocyte colonies: stimulated the growth of keratinocyte colonies
[3]; concurrently administered at induction with ovalbumin/IFA
  effect on subsequent DTH response (Part C): inhibit the subsequent DTH response
[3]; given at induction
  effect on primary immune response (Part D): did not show potential to enhance a primary immune response
[3]; topical at challenge, ovalbumin/CFA
  effect on secondary immune response, DTH (Part B): sustained or increased DTH response
[4]; in the presence of concanavalin, read-out: inhibition of T-cells proliferation
  inhibition at 10 µM: 43%
[4]; without concanavalin, read-out: inhibition of T-cells
  inhibition at 10 µM: 24%
[5]; after 4th day and 29th
  increase of monocytes: up to 100%
[5]; after 29 days
  increase of neutrophils in blood: 43.61%
[5]; fourth day
  decrease of lymphocytes: 24.15%
  increase of neutrophils in blood: 51.77%
[5]; twenty nine days
  decrease of lymphocytes: 24.60%
